In article PMC11329928, “Design, synthesis and structure-activity relationship (SAR) studies of an unusual class of non-cationic fatty amine-tripeptide conjugates as novel synthetic antimicrobial agents” (Frontiers in Pharmacology, 2024):
Where a name gives a salt, the structure may show the parent alone.

Legend:
[1] = system: Streptococcus pneumoniae R6; assay: Growth inhibition / lysis screening of planktonic cultures (OD550/600); assay type: cell-based; set-up: key: (+++) full inhibition; (++) partial inhibition; (+) growth retardation; -: (−) no effect; settings: S. pneumoniae R6, 50 and 100 μM compound added at early logarithmic phase (T1), OD550/600 followed 10 h, 37°C
Experimental: (§1) Planktonic cultures of selected pathogens (S. pneumoniae R6, S. pyogenes ^T, Staphylococcus aureus ^T, Escherichia coli DH10B, and Pseudomonas aeruginosa PAO1 strains) on early logarithmic-phase (T1) were assayed for their sensitivity to a broad range of DICAM compounds, as indicated in Table 1. Their bacteriostatic or lytic effect was first tested by measuring the variation of the OD550/600 as a function of time (10 h) when (50/100 μM) DICAMs were added, compared to untreated controls. The screening results, summarized in Table 1, evidenced that a potent antimicrobial activity may exist even when the negative charge of the peptide was higher than in the prototype compounds.
(§2) Susceptibility to DICAMs was first tested by growth-inhibition assays at 50 and 100 μM of compound. Briefly, working solutions at 5 mM or 10 mM DICAM in pure DMSO were prepared from DICAM stocks (40 mM in pure DMSO) and diluted with fresh culture medium to 5× the desired final concentration. Aliquots (50 µL) of these solutions were added to 200 µL of bacterium cultures grown to early exponential phase (OD550/600 c. a. 0.15–0.2 in sterile 96-well plates (Cultek, Spain). Incubation continued for 10 h at 37°C and turbidity (OD550/600) values were measured every 20 min to monitor growth and lysis, using a VersaMax microplate reader (Molecular Devices; United Kingdom). Next, the activity dependence on DICAM’s dose was examined by measuring the turbidity of treated and untreated cultures as a function of time. Also, the decay of bacterial viability (CFU/mL) at selected times of treatment was assessed by colony counting on LB-agar or TSA plates after overnight incubation at 37°C. By default, 10 μL of 10-fold serially diluted samples were plated, which set the lower detection limit at 10^2 CFU/mL (10^1 CFU/mL when 100 μL of the undiluted sample was seeded).

S. pneumoniae D39 = assay type: cell-based, Streptococcus pneumoniae; settings: for SC (stationary concentration, Δlog = 0), S. pneumoniae D39 / EC50 / Δlogmax, S. pneumoniae D39: 1 h treatment, Hill fit; for SC (stationary concentration, Δlog = 0), S. pneumoniae D39: C + Y medium, added at T1, 10^7–10^8 CFU/mL, CFU vs untreated controls; for EC50 / Δlogmax, S. pneumoniae D39: C + Y; for EC50: read-out: K 1/2 (concentration yielding half-variation in Δlogmax), S. pneumoniae D39 (converted); for Δlogmax, S. pneumoniae D39: maximum variation in viability; for Reduction of the number of viable cells at saturating doses: S. pneumoniae D39, within 60 min; for Reduction of the number of viable cells at 3 × SC, S. pneumoniae: after 1-h incubation at 3 × SC values
Excerpt: First, the substitution of the fatty amino chain of 18 carbon atoms of the reference compound DICAM 2 by either an OMe group (methylated tripeptide DICAM 5) or an amine with 12 carbon atoms (DICAM 9) abolished the activity against all three pathogens. However, the activity remained intact when the chain of the fatty amine of prototypes DICAMs 1 and 4 was two carbon atoms shorter (DICAM 10 and DICAM 12, respectively), based on S. pneumoniae and S. pyogenes results. […] Third, Glu and Ala were tolerated as C-terminal residues of the lipotripeptides. […] In addition, deletion of the C-terminal Glu (DICAM 13) eradicated the activity against S. pneumoniae and S. aureus. However, a delay and small inhibition of S. pyogenes ^T growth was still observed. Fourth, Glu (DICAMs 19 and 20) and Orn (DICAMs 21 and 22) were tolerated as N-terminal residues, with the impact of these modifications being pathogen-dependent. […] SAR studies continued by measuring the dose dependence of DICAM’s activity at T1 with all the compounds found to be active against S. pyogenes or S. aureus in the initial screening, and all but one compound in the case of S. pneumoniae. The OD values of bacterial cultures were monitored after DICAM addition, and the decrease in the number of viable bacteria was measured relative to controls (Figures 4–6; Supplementary Figure S1). As antibacterial efficacy may decline with the bacterium dose in the inoculum ([Belley et al., 2009]; [Udekwu et al., 2009]; [Luca et al., 2013]), the assays were performed using the bacterial concentrations necessary for the fluorescence experiments in Section 2.3 (10^7–10^8 CFU/mL). At these high bacterial densities, MICs were determined as the DICAM concentration at which bacteria neither grow nor are killed (the stationary concentration (SC)), following [Udekwu et al., 2009]. By fitting the logarithmic plot of cell viability decrease vs. the DICAM dose to a Hill function (see Section 5.2.3.1) we were able to determine the maximum variation in viability (Δlogmax = ∆log f - ∆log 0, where ∆log f and ∆log 0 are the upper and lower limits of Δlog) in the assay conditions, the SC concentration (Δlog = 0), the dose required for half-variation in Δlogmax (K 1/2), and the cooperativity of the antimicrobial effect (N H).
as §2
As antibacterial efficacy may decline with the bacterium dose in the inoculum ([Belley et al., 2009]; [Udekwu et al., 2009]; [Luca et al., 2013]), activity assays were performed using the bacterial concentrations required for the fluorescence experiments in Section 2.3 (10^7–10^8 CFU/mL). At such bacterial densities, MICs were determined as the DICAM concentration at which bacteria neither grow nor are killed under assay conditions (the stationary concentration (SC)), as indicated in Section 2.2. […]

[2] = system: human fetal lung fibroblasts IMR-90; assay type: cell-based; settings: 48 h
Experimental: DICAM’s cytotoxicity was determined employing a modified MTT assay as described elsewhere ([Antúnez-Mojica et al., 2016]) using human lung carcinoma epithelial cells A549, human fetal lung fibroblasts IMR-90, and human HeLa cervix carcinoma cells treated with increasing concentrations of DICAMs (0.8–200 µM range). A549 cells were grown in RPMI 1640 (Gibco; Fisher Scientific, Spain) supplemented with 10% FCS, 2 mM glutamine, 100 IU/mL penicillin and 100 μg/mL streptomycin. IMR-90 and HeLa cells were cultured in DMEM (Gibco; Fisher Scientific, Spain) supplemented with 10% FCS, 2 mM L-glutamine, 1 mM pyruvate, […] penicillin, 100 μg/mL streptomycin and 40 μg/mL gentamycin. Cell viability was assessed after 48 h exposure to DICAMs. Vinblastine was used as a positive control. IC50 value is the concentration that gives 50% inhibition of cell growth and was determined using SigmaPlot (Systat) fitting to a Four Parameter Logistic curve.

Streptococcus pyogenes T = assay: Growth inhibition screening of planktonic cultures (OD550/600); assay type: cell-based; set-up: key: (+++) full inhibition; (++) partial inhibition; (+) growth retardation; -: (−) no effect; settings: S. pyogenes T, 50 and 100 μM compound added at T1, OD550/600 followed 10 h, 37°C
Experimental: as §1, §2

[3] = S. pneumoniae D39, 50 μM (Supplementary Figure S1F), C+Y, 37°C

| Compound | Growth halt or lysis (50/100 μM), Spn [1] | SC (stationary concentration, Δlog = 0), S. pneumoniae D39 (S. pneumoniae D39; 37°C) | EC50 (S. pneumoniae D39; 37°C) [µM] | Time required to reduce the viability by 99.99% (S. pneumoniae D39; [3]) [h] | Viability decrease in 1 h (S. pneumoniae D39; [3]) | Δlogmax, S. pneumoniae D39 (S. pneumoniae D39; 37°C) [logarithmic units] | IC50 [2] [µM] | Growth halt or lysis (50/100 μM), Spy T (Streptococcus pyogenes T) | Reduction of the number of viable cells at saturating doses (S. pneumoniae D39) [log-units] | Reduction of the number of viable cells at 3 × SC, S. pneumoniae (S. pneumoniae D39) | Cell killing after 60 min of incubation (S. pneumoniae D39; [3]) [%] | Time to nearly sterilize the culture (S. pneumoniae D39; S. pneumoniae D39, 50 μM, C+Y, 37°C, legend of Supplementary Figure S1F) |
| --- | --- | --- | --- | --- | --- | --- | --- | --- | --- | --- | --- | --- |
| CCCCCCCCCCCCCCCCCCNC(=O)[C@H](CCC(=O)O)NC(=O)[C@H]1CCCN1C(=O)[C@H](CC(N)=O)NC(=O)OCc1ccccc1 [DICAM 1, Cbz-Asn- Pro -Glu-NH-C18H37] | +++ | 2 ± 0.2 µM | 3.8 ± 0.2 | 2 to 2.5 | ≈ 90% | 2.05 ± 0.03 | 39 ± 1 | +++ | – | – | – | – |
| CCCCCCCCCCCCCCCCCCNC(=O)[C@H](CCC(=O)O)NC(=O)[C@H]1CCCN1C(=O)[C@@H](N)CC(N)=O [DICAM 2, Asn- Pro -Glu-NH-C18H37 ·HCl] | +++ | 4.1 ± 0.6 µM | 10.7 ± 0.4 | – | – | 4.6 ± 0.1 | 46.7 ± 0.7 | +++ | ≥ 4.6 | 99.2%–99.8 | – | – |
| CCCCCCCCCCCCCCCCCCNC(=O)[C@H](CCC(=O)O)NC(=O)[C@H]1CCCN1C(=O)[C@H](C)NC(=O)OCc1ccccc1 [DICAM 3, Cbz-Ala- Pro -Glu-NH-C18H37] | +++ | 6.5 ± 0.5 µM | 7.8 ± 0.4 | 2 to 2.5 | ≈ 90% | 1.51 ± 0.04 | 75 ± 13 | +++ | – | – | – | – |
| CCCCCCCCCCCCCCCCCCNC(=O)[C@H](CCC(=O)O)NC(=O)[C@H]1CCCN1C(=O)[C@H](C)N [DICAM 4, Ala- Pro -Glu-NH-C18H37 ·HCl] | +++ | 4 ± 1.5 µM | 13 ± 2 | – | – | 6.0 ± 0.4 | 65 ± 3 | +++ | ≥ 4.6 | 99.2%–99.8 | ≥ 99.999 | less than 1 h |
| CCCCCCCCCCCCCCCCNC(=O)[C@H](CCC(=O)O)NC(=O)[C@H]1CCCN1C(=O)[C@H](CC(N)=O)NC(=O)OCc1ccccc1 [DICAM 10, Cbz-Asn- Pro -Glu-NH-C16H33] | +++ | 3.4 ± 0.5 µM | 6.5 ± 0.3 | 2 to 2.5 | ≈ 90% | 3.13 ± 0.06 | 45 ± 1 | +++ | – | – | – | – |
| CCCCCCCCCCCCCCCCCCNC(=O)[C@H](C)NC(=O)[C@H]1CCCN1C(=O)[C@H](C)N [DICAM 14, Ala- Pro -Ala-NH-C18H37 · HCl] | +++ | ∼33 µM | – | – | – | – | 7.69 ± 0.06 | +++ | – | – | – | – |
